Data: patent US10221139B2, “Inhibitors of histone demethylases” (Gilead Sciences, Inc., priority 2012, dated 2019)

System: demethylation of H3K4 (H3K4me3 mark) in U2OS cells
Experiment: Histone lysine demethylase immunofluorescence assay, non-transfected U2OS cells (H3K4me3 staining)
Assay type: cell-based
Conditions: Homo sapiens, 20 hours
Protocol: Histone Lysine Demethylase Immunofluorescence Assays for IC50 Value Determination, Non-Transfected Cells
U2OS cells were harvested and seeded into multi well plates into media containing compound. The media used was DMEM containing 5% FBS and pen/strep. 20 hours after incubation of cells with compounds, the cells were washed once in PBS, harvested by fixation with formaldehyde 4% aqueous solution, and washed 2 times in PBS. Subsequently, the cells were permeabilized in PBS with 0.2% Triton X-100 for 10 min at room temperature. Blocking was performed in PBS with 0.2% Triton X-100 and 5% FBS for 45 min at room temperature. The cells were incubated with αH3K4me3 primary antibody (Cell Signaling, #9751S) diluted 1:1000 in blocking solution over night at 4° C. After incubation with primary antibody, the cells were washed 3 times with PBS, incubated with secondary antibody diluted 1:1000 (Alexa fluor 594 goat anti rabbit IgG, Invitrogen, A11012) and Hoechst, 20 μg/ml (Sigma, 33342) in blocking solution, and washed again 3 times with PBS. Finally, PBS was added and high throughput imaging and analysis were performed by an IN Cell Analyzer 1000 (GE Healthcare). The IC50 values seen in Table 4 were based on an average measure of the staining of the H3K4me3 mark in cells.

`CCOC(=O)Nc1ccc(COC(=O)c2ccnc(CNCCCCN(CC)CC)c2)cc1` [drawing 231, {4-[(ethoxycarbonyl)amino]phenyl}methyl 2-({[4-(diethylamino)butyl]amino}methyl) pyridine-4-carboxylate] and `CCOC(=O)c1ccccc1OC(=O)c1ccnc(CNCCCCN(CC)CC)c1` [drawing 228, 2-(ethoxycarbonyl)phenyl 2-({[4-(diethylamino)butyl]amino}methyl) pyridine-4-carboxylate] cannot be ordered by IC50: under 1 µM for the first, under 1 µM for the second.

`C=CC(CCN(C)C(=O)C(F)(F)F)OC(=O)c1ccnc(CNCC(=O)N(CC)CCN(C)C)c1` (centres unmarked) [drawing 243, 5-(2,2,2-trifluoro-N-methylacetamido)pent-1-en-3-yl 2-{[({[2-(dimethylamino)ethyl](ethyl)carbamoyl}methyl)amino]methyl}pyridine-4-carboxylate] and `CCN(CCN(C)C)C(=O)CNCc1cc(C(=O)OC(C)CCN(C)C(=O)C(F)(F)F)ccn1` (centres unmarked) [drawing 240, 4-(2,2,2-trifluoro-N-methylacetamido)butan-2-yl 2-{[({[2-(dimethylamino)ethyl](ethyl)carbamoyl}methyl)amino]methyl}pyridine-4-carboxylate] cannot be ordered by IC50: under 1 µM for the first, under 1 µM for the second.

`CCN(CCN(C)C)C(=O)CNCc1cc(C(=O)Oc2ccc(OC)cc2)ccn1` [drawing 234, 4-methoxyphenyl 2-{[({[2-(dimethylamino)ethyl](ethyl)carbamoyl}methyl)amino]methyl}pyridin-4-carboxylate] and `CCN(CCN(C)C)C(=O)CNCc1cc(C(=O)Oc2ccc(C(C)(C)C)cc2)ccn1` [drawing 237, 4-tert-butylphenyl 2-{[({[2-(dimethylamino)ethyl](ethyl)carbamoyl}methyl)amino]methyl}pyridine-4-carboxylate] cannot be ordered by IC50: under 1 µM for the first, under 1 µM for the second.

`CCN(CC)CCCCNCc1cc(C(=O)OCCN(C)C)ccn1` [drawing 229, 2-(dimethylamino)ethyl 2-({[4-(diethylamino)butyl]amino}methyl) pyridine-4-carboxylate] and `CCN(CC)CCCCNCc1cc(C(=O)O)ccn1` [drawing 225, 2-({[4-(diethylamino)butyl]amino}methyl) pyridine-4-carboxylic acid] fall in the same range of IC50: 1 to 50 µM for the first, 1 to 50 µM for the second.

`CCN(CCN(C)C)C(=O)CNCc1cc(C(=O)OC(C)CCNC(=O)C(F)(F)F)ccn1` (centres unmarked) [drawing 239, 4-(trifluoroacetamido)butan-2-yl 2-{[({[2-(dimethylamino)ethyl](ethyl)carbamoyl}methyl)amino]methyl}pyridin-4-carboxylate] and `CCN(CCN(C)C)C(=O)CNCc1cc(C(=O)OC(CCNC(=O)C(F)(F)F)CC(=O)OC(C)C)ccn1` (centres unmarked) [drawing 250, propan-2-yl 3-(2-{[({[2-(dimethylamino)ethyl](ethyl)carbamoyl}methyl)amino]methyl}pyridine-4-carbonyloxy)-5-(trifluoroacetamido)pentanoate] cannot be ordered by IC50: under 1 µM for the first, under 1 µM for the second.

`CCOC(=O)c1ccccc1OC(=O)c1ccnc(CNCC(=O)N(CC)CCN(C)C)c1` [drawing 235, 2-(ethoxycarbonyl)phenyl 2-{[({[2-(dimethylamino)ethyl](ethyl)carbamoyl}methyl)amino]methyl}pyridine-4-carboxylate] and `CCOC(=O)c1ccnc(CNCC(=O)N(CC)CCN(C)C)c1` [drawing 241, ethyl 2-{[({[2-(dimethylamino)ethyl](ethyl)carbamoyl}methyl)amino]methyl}pyridine-4-carboxylate] cannot be ordered by IC50: under 1 µM for the first, under 1 µM for the second.

`CCN(CCN(C)C)C(=O)CNCc1cc(C(=O)N(C)S(C)(=O)=O)ccn1` [drawing 247, 2-{[({[2-(dimethylamino)ethyl](ethyl)carbamoyl}methyl)amino]methyl}-N-methanesulfonyl-N-methylpyridine-4-carboxamide] and `CCN(CCN(C)C)C(=O)CNCc1cc(C(=O)O)ccn1` [drawing 226, 2-{[({[2-(dimethylamino)ethyl](ethyl)carbamoyl}methyl)amino]methyl}pyridine-4-carboxylic acid] fall in the same range of IC50: 1 to 50 µM for the first, 1 to 50 µM for the second.

`CCN(CCN(C)C)C(=O)CNCc1cc(C(=O)Nc2ncco2)ccn1` [drawing 252, 2-{[({[2-(dimethylamino)ethyl](ethyl)carbamoyl}methyl)amino]methyl}-N-(1,3-oxazol-2-yl)pyridine-4-carboxamide] and `CCN(CCN(C)C)C(=O)CNCc1cc(C(=O)Nc2nccn2C)ccn1` [drawing 254, 2-{[({[2-(dimethylamino)ethyl](ethyl)carbamoyl}methyl)amino]methyl}-N-(1-methyl-1H-imidazol-2-yl)pyridine-4-carboxamide] fall in the same range of IC50: 1 to 50 µM for the first, 1 to 50 µM for the second.

Compared with `COC(=O)c1ccnc(CNCCCN2CCCC2)c1` [drawing 224, methyl 2-({[3-(pyrrolidin-1-yl)propyl]amino}methyl)pyridine-4-carboxylate], `CCN(CCN(C)C)C(=O)CNCc1cc(C(=O)OC)ccn1` [drawing 246, methyl 2-{[({[2-(dimethylamino)ethyl](ethyl)carbamoyl}methyl)amino]methyl}pyridine-4-carboxylate] is lower in IC50: 1 to 50 µM for the first, under 1 µM for the second. The second is the more potent here.

`CCN(CCN(C)C)C(=O)CNCc1cc(C(=O)OCCF)ccn1` [drawing 255, 2-fluoroethyl 2-{[({[2-(dimethylamino)ethyl](ethyl)carbamoyl}methyl)amino]methyl}pyridine-4-carboxylate] and `CCN(CCN(C)C)C(=O)CNCc1cc(C(=O)OCC(F)F)ccn1` [drawing 256, 2,2-difluoroethyl 2-{[({[2-(dimethylamino)ethyl](ethyl)carbamoyl}methyl)amino]methyl}pyridine-4-carboxylate] cannot be ordered by IC50: under 1 µM for the first, under 1 µM for the second.

`CCN(CCN(C)C)C(=O)CNCc1cc(C(=O)OC(C)CC(C)=O)ccn1` (centres unmarked) [drawing 238, 4-oxopentan-2-yl 2-{[({[2-(dimethylamino)ethyl](ethyl)carbamoyl}methyl)amino]methyl}pyridine-4-carboxylate] and `CCN(CCN(C)C)C(=O)CNCc1cc(C(=O)OCC(F)(F)F)ccn1` [drawing 251, 2,2,2-trifluoroethyl 2-{[({[2-(dimethylamino)ethyl](ethyl)carbamoyl}methyl)amino]methyl}pyridine-4-carboxylate] cannot be ordered by IC50: under 1 µM for the first, under 1 µM for the second.

`CCCCCCCCCCCCCCCC(=O)OCC(COC(=O)CCCCCCCCCCCCCCC)OC(=O)c1ccnc(CNCC(=O)N(CC)CCN(C)C)c1` [drawing 244, 2-(2-{[({[2-(dimethylamino)ethyl](ethyl)carbamoyl}methyl)amino]methyl}pyridine-4-carbonyloxy)-3-(hexadecanoyloxy)propyl hexadecanoate] and `CCCCCCCCCCCCCCCC(=O)OCC(COC(=O)c1ccnc(CNCC(=O)N(CC)CCN(C)C)c1)OC(=O)CCCCCCCCCCCCCCC` (centres unmarked) [drawing 245, 1-(2-{[({[2-(dimethylamino)ethyl](ethyl)carbamoyl}methyl)amino]methyl}pyridine-4-carbonyloxy)-3-(hexadecanoyloxy)propan-2-yl hexadecanoate] cannot be ordered by IC50: under 1 µM for the first, under 1 µM for the second.

Compared with `O=C(CNCc1cc(C(=O)O)ccn1)NC1CCN(CCCc2ccccc2)CC1` [drawing 223, 2-{[({[1-(3-phenylpropyl)piperidin-4-yl]carbamoyl}methyl)amino]methyl} pyridine-4-carboxylic acid], `CCN(CCN(C)C)C(=O)CNCc1cc(C(=O)N2CCOC2=O)ccn1` [drawing 248, N-[2-(dimethylamino)ethyl]-N-ethyl-2-({[4-(2-oxo-1,3-oxazolidine-3-carbonyl)pyridin-2-yl]methyl}amino)acetamide] is lower in IC50: over 50 µM for the first, 1 to 50 µM for the second. The second is the more potent here.

`CCN(CC)CCCCNCc1cc(C(=O)Oc2ccc(OC)cc2)ccn1` [drawing 227, 4-methoxyphenyl 2-({[4-(diethylamino)butyl]amino}methyl) pyridine-4-carboxylate] and `CCN(CC)CCCCNCc1cc(C(=O)Oc2c(OC)cccc2OC)ccn1` [drawing 232, 2,6-dimethoxyphenyl 2-({[4-(diethylamino)butyl]amino}methyl) pyridine-4-carboxylate] cannot be ordered by IC50: under 1 µM for the first, under 1 µM for the second.

`CCN(CCN(C)C)C(=O)CNCc1cc(C(=O)Oc2c(OC(C)C)cccc2OC(C)C)ccn1` [drawing 253, 2,6-bis(propan-2-yloxy)phenyl 2-{[({[2-(dimethylamino)ethyl](ethyl)carbamoyl}methyl)amino]methyl}pyridine-4-carboxylate] was tested, and the IC50 was 1 to 50 µM.
